From US20240270821A1, “GIP/GLP1/GCG TRI-RECEPTOR AGONISTS AND USES THEREOF” (priority 2023, published 2024)
Starred links: 1 amine or outer side, 2 acyl side, 3 side chain; linkers in the order of their positions; H or OH if unused. Non-standard residues stand in square brackets, D forms with d. Groups on a side chain read outwards from the residue. *: point of attachment. C20 diacid = O=C(O)CCCCCCCCCCCCCCCCCCC(=O)*; C18 diacid = O=C(O)CCCCCCCCCCCCCCCCC(=O)*; γGlu = O=C(O)[C@H](CCC(=O)[*:2])N[*:1]; αMe4Pal = C[C@](N)(Cc1ccncc1)C(=O)O; αMeY = C[C@](N)(Cc1ccc(O)cc1)C(=O)O; 4Pal = N[C@@H](Cc1ccncc1)C(=O)O; αMeL = CC(C)C[C@](C)(N)C(=O)O; Orn = NCCC[C@H](N)C(=O)O; AEEA = NCCOCCOCC(=O)O; Aib = CC(C)(N)C(=O)O

Columns and labels:
Format in all cases: cell-based
hGIPR [1] = biological target: T1, hGIPR (Homo sapiens, UniProt P48546); test: Functional cAMP activity in the presence of 1% HSA; conditions: read-out: cAMP Rel EC50, hGIPR
T1 sequence (P48546 22-466): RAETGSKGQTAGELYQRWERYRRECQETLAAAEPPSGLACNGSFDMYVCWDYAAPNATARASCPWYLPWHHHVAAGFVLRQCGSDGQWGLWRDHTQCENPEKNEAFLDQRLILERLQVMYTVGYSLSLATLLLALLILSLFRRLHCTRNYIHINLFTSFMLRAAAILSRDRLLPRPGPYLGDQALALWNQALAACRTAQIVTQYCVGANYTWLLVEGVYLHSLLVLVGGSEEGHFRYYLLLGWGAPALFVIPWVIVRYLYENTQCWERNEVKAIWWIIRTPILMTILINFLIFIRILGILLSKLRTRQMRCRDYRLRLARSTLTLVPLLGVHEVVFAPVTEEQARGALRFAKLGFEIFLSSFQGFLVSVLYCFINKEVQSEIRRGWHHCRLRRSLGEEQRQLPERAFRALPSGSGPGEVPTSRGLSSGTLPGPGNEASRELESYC

hGLP-1R [2] = biological target: T2, hGLP-1R (Homo sapiens, UniProt P43220); test: Functional cAMP activity in the presence of 1% HSA; conditions: read-out: cAMP Rel EC50, hGLP-1R
human GcgR = human GcgR (Homo sapiens, UniProt P47871); test: Functional cAMP activity in the presence of 1% HSA; conditions: read-out: cAMP Rel EC50, hGcgR
hGIPR [3] = biological target: T1, hGIPR; test: Functional cAMP activation in the presence of 0.1% casein (no HSA); conditions: in the presence of 0.1% casein (no HSA); geometric mean; read-out: Relative cAMP EC50, hGIPR;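 on Relative cAMP EC50, hGIPR: intracellular cAMP rise after 30 min at 37 °C read by HTRF against a standard curve, scaled between buffer alone (0%) and top control ligand concentration (100%), four-parameter fit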;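 on Relative cAMP EC50, hGLP-1R: intracellular cAMP rise after 30 min at 37 °C read by HTRF, normalized between buffer only (0%) and maximal control ligand (100%), four-parameter variable-slope fit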;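 on Relative cAMP EC50, hGcgR: intracellular cAMP rise after 30 min at 37 °C, read by HTRF against a cAMP standard curve, scaled from buffer only (0%) to maximal control ligand response (100%)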
hGLP-1R [4] = biological target: T2, hGLP-1R; test: as above; conditions: in the presence of 0.1% casein (no HSA); geometric mean; read-out: Relative cAMP EC50, hGLP-1R
hGcgR = hGcgR (Homo sapiens, UniProt P47871); test: as above; conditions: in the presence of 0.1% casein (no HSA); geometric mean; read-out: Relative cAMP EC50, hGcgR;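 further: intracellular cAMP rise after 30 min at 37 °C, read by HTRF against a cAMP standard curve, scaled from buffer only (0%) to maximal control ligand response (100%)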
Chain of hGcgR (P47871 26-477): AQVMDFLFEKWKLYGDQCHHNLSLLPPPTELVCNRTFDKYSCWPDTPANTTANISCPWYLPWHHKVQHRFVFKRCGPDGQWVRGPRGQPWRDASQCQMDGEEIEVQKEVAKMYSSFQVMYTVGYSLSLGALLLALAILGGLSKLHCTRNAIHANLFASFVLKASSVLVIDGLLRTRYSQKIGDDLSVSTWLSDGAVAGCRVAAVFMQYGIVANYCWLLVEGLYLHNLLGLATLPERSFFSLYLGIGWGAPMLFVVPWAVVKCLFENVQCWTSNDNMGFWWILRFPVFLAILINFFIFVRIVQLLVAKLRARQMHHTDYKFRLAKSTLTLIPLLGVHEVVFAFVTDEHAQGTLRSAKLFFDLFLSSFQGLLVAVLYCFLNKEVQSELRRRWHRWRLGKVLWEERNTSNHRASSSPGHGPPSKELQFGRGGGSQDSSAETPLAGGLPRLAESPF

T2 sequence (P43220 24-463): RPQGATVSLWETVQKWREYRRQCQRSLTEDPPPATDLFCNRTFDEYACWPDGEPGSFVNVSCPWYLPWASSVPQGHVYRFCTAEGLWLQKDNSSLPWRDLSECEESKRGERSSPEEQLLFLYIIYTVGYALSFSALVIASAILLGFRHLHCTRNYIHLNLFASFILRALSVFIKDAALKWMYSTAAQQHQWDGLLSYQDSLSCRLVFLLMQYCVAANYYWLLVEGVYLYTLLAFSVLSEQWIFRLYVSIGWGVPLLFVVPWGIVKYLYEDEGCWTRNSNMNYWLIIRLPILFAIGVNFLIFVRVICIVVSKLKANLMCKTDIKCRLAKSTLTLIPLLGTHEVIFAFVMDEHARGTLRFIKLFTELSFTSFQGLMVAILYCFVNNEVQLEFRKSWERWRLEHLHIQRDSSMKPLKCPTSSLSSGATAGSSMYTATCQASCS
Chain of human GcgR (P47871 26-477): as the sequence (P47871 26-477) above

Row | Substance | EC50 (hGIPR [1]) | EC50 (hGLP-1R [2]) | EC50 (human GcgR) | EC50 (hGIPR [3]) | EC50 (hGLP-1R [4]) | EC50 (hGcgR)
1 | H-Y[Aib]QGTFTSDYSI[αMeL]LD[Orn]QAAK([AEEA-AEEA-γGlu-C20 diacid])QFVEWLLA[Aib]GPSSGEPPPSEG-NH2 [Example 328] | 91.1 nM | 462 nM | 2040 nM | 0.544 nM | 1.3 nM | 10.3 nM
2 | H-Y[Aib]QGTFTSDYSK[αMeL]LDKK([AEEA-γGlu-C20 diacid])AQQAFIEYLIAGGPSSGAPPPSSE-NH2 [Example 322] | 89.3 nM | 135 nM | 2620 nM | 0.264 nM | 0.394 nM | 5.41 nM
3 | H-Y[Aib]QGTFTSDYSK[αMeL]LDKK([AEEA-γGlu-C20 diacid])AQQAFIEYLIAGGPSSGEPPPSGD-NH2 [Example 337] | 99.1 nM | 272 nM | 2950 nM | 0.332 nM | 0.686 nM | 5.95 nM
4 | H-Y[Aib]QGTFTSDYSK[αMeL]LDKK([AEEA-γGlu-C20 diacid])AQQAFIEYLLAGGPSSGEPPPSGE-NH2 [Example 344] | 70.7 nM | 523 nM | 1440 nM | 0.406 nM | 2.56 nM | 9.05 nM
5 | H-Y[Aib]QGTFTSDYSK[αMeL]LDKK([AEEA-γGlu-C20 diacid])AQQAFIQWLIEGGPSSGEPPPSEG-NH2 [Example 314] | 65.9 nM | 100 nM | 1030 nM | 0.345 nM | 0.274 nM | 3.7 nM
6 | H-Y[Aib]QGTFTSDYSK[αMeL]LDKK([AEEA-γGlu-C20 diacid])AQQAFVQWLIE[dA]GPSSGEPPPSEG-NH2 [Example 342] | 71.3 nM | 62 nM | 2130 nM | 0.347 nM | 0.419 nM | 10.2 nM
7 | H-Y[Aib]QGTFTSDYSK[αMeL]LDKK([AEEA-γGlu-C20 diacid])AQ[Aib]AFVQWLLEGGPSSGEPPPSEG-NH2 [Example 343] | 16.7 nM | 178 nM | 475 nM | 0.184 nM | 1.31 nM | 6.83 nM
8 | H-Y[Aib]QGTFTSD[4Pal]SK[αMeL]LDKK([AEEA-γGlu-C18 diacid])AQ[Aib]AFIEYLIA[Aib]GESSGEPPPSGS-NH2 [Example 287] | 9.94 nM | 562 nM | 291 nM | 0.0633 nM | 4.25 nM | 2.53 nM
9 | H-Y[Aib]QGTFTSD[4Pal]SK[αMeL]LDKK([AEEA-γGlu-C18 diacid])AQ[Aib]AFIEYLIEGGPSSGAPPPSGS-NH2 [Example 908] | 26.7 nM | 174 nM | 980 nM | 0.246 nM | 1.2 nM | 8.11 nM
10 | H-Y[Aib]QGTFTSD[4Pal]SK[αMeL]LDKK([AEEA-γGlu-C18 diacid])AQ[Aib]AFIEYLIE[Aib]GPSSGAPPPSGS-NH2 [Example 801] | 18.1 nM | 133 nM | 1200 nM | 0.147 nM | 0.938 nM | 5.51 nM
11 | H-Y[Aib]QGTFTSD[4Pal]SK[αMeL]LDKK([AEEA-γGlu-C18 diacid])AQ[Aib]AFIEYLIE[Aib]GPSSGAPPPSGSE-NH2 [Example 901] | 34 nM | 193 nM | 1150 nM | 0.17 nM | 1.26 nM | 9.09 nM
12 | H-Y[Aib]QGTFTSD[4Pal]SK[αMeL]LDKK([AEEA-γGlu-C18 diacid])AQ[Aib]AFIEYLIE[Aib]GPSSGAPPPSGSEE-NH2 [Example 902] | 28.5 nM | 232 nM | 1360 nM | 0.19 nM | 2.58 nM | 15.9 nM
13 | H-Y[Aib]QGTFTSD[4Pal]SK[αMeL]LDKK([AEEA-γGlu-C18 diacid])AQ[Aib]AFIEYLIE[Aib]GPSSGAPPPSGSEEE-NH2 [Example 903] | 31.2 nM | 387 nM | 1630 nM | 0.277 nM | 2.7 nM | 12.9 nM
14 | H-Y[Aib]QGTFTSD[4Pal]SK[αMeL]LDKK([AEEA-γGlu-C18 diacid])AQ[Aib]AFIEYLIE[dA]GESSGEPPPSGS-NH2 [Example 284] | 59.8 nM | 271 nM | 1530 nM | 0.347 nM | 1.54 nM | 9.21 nM
15 | H-Y[Aib]QGTFTSD[4Pal]SK[αMeL]LDKK([AEEA-γGlu-C18 diacid])AQ[Aib]AFIE[αMe4Pal]LIE[Aib]GPSSGAPPPSGS-NH2 [Example 914] | 5.94 nM | 91.7 nM | 983 nM | 0.0582 nM | 0.888 nM | 10.6 nM
16 | H-Y[Aib]QGTFTSD[4Pal]SK[αMeL]LDKK([AEEA-γGlu-C18 diacid])AQ[αMe4Pal]AFIEYLIE[Aib]GPSSGAPPPSGS-NH2 [Example 915] | 15.3 nM | 226 nM | 174 nM | 0.0988 nM | 1.5 nM | 0.882 nM
17 | H-Y[Aib]QGTFTSD[4Pal]SK[αMeL]LDKK([AEEA-γGlu-C18 diacid])AQ[αMe4Pal]AFIE[αMe4Pal]LIE[Aib]GPSSGAPPPSGS-NH2 [Example 916] | 4.78 nM | 166 nM | 158 nM | 0.0715 nM | 1.38 nM | 1.09 nM
18 | H-Y[Aib]QGTFTSD[4Pal]SK[αMeL]LDKK([γGlu-γGlu-C18 diacid])AQ[Aib]AFIEYLIE[Aib]GPSSGAPPPSGS-NH2 [Example 907] | 8.86 nM | 123 nM | 1210 nM | 0.103 nM | 1.15 nM | 5.79 nM
19 | H-Y[Aib]QGTFTSD[4Pal]SK[αMeL]LDKK([γGlu-γGlu-C18 diacid])AQ[Aib]AFIEYLIE[Aib]GPSSGAPPPSGSE-NH2 [Example 904] | 15 nM | 198 nM | 1330 nM | 0.194 nM | 1.94 nM | 9.88 nM
20 | H-Y[Aib]QGTFTSD[4Pal]SK[αMeL]LDKK([γGlu-γGlu-C18 diacid])AQ[Aib]AFIEYLIE[Aib]GPSSGAPPPSGSEE-NH2 [Example 905] | 10.4 nM | 215 nM | 1390 nM | 0.217 nM | 2.52 nM | 12.3 nM
21 | H-Y[Aib]QGTFTSD[4Pal]SK[αMeL]LDKK([γGlu-γGlu-C18 diacid])AQ[Aib]AFIEYLIE[Aib]GPSSGAPPPSGSEEE-NH2 [Example 906] | 15.4 nM | 236 nM | 1170 nM | 0.212 nM | 2.48 nM | 14.7 nM
22 | H-Y[Aib]QGTFTSD[4Pal]SQ[αMeL]LDKK([AEEA-AEEA-γGlu-C18 diacid])AQ[αMe4Pal]AFIEYLIE[Aib]GPSSGAPPPSGS-NH2 [Example 816] | 15.9 nM | 310 nM | 1100 nM | 0.297 nM | 2.69 nM | 6.57 nM
23 | H-Y[Aib]QGTFTSD[4Pal]SQ[αMeL]LDKK([AEEA-γGlu-C18 diacid])AQ[Aib]AFIEYLLE[dA]GPSS[Aib]APPPSGT-NH2 [Example 824] | 28.9 nM | 343 nM | 1110 nM | 0.123 nM | 2.43 nM | 7.92 nM
24 | H-Y[Aib]QGTFTSD[4Pal]SQ[αMeL]LDKK([AEEA-γGlu-C18 diacid])AQ[Aib]AFIE[αMeY]LIEGGPSSGAPPPEGS-NH2 [Example 853] | 32.4 nM | 102 nM | 4500 nM | 0.224 nM | 0.507 nM | 26.5 nM
25 | H-Y[Aib]QGTFTSD[4Pal]SQ[αMeL]LDKK([AEEA-γGlu-C18 diacid])AQ[Aib]AFIE[αMeY]LLEGGPSSGAPPPSGS-NH2 [Example 910] | 25.7 nM | 239 nM | 2640 nM | 0.111 nM | 1.49 nM | 9.76 nM
26 | H-Y[Aib]QGTFTSD[4Pal]SQ[αMeL]LDKK([AEEA-γGlu-C18 diacid])AQ[αMe4Pal]AFIEWLIEGGPSSGAPPPSGS-NH2 [Example 830] | 44.8 nM | 180 nM | 809 nM | 0.132 nM | 0.791 nM | 3.21 nM
27 | H-Y[Aib]QGTFTSD[4Pal]SQ[αMeL]LDKK([AEEA-γGlu-C18 diacid])AQ[αMe4Pal]AFIEWLIEGGPSSGAPPPSGT-NH2 [Example 831] | 38.2 nM | 237 nM | 1450 nM | 0.604 nM | 0.672 nM | 4.63 nM
28 | H-Y[Aib]QGTFTSD[4Pal]SQ[αMeL]LDKK([AEEA-γGlu-C18 diacid])AQ[αMe4Pal]AFIEYLIAGGPSSGAPPPSGSEE-NH2 [Example 1029] | 22.3 nM | 170 nM | 511 nM | 0.163 nM | 1.79 nM | 5.35 nM
